Target: T1, human recombinant mGluR5 (Homo sapiens, UniProt P41594)
T1 construct: expressed in transfected cells; host or cells: HEK 293
Experiment: positive modulation of mGluR5, calcium based FLIPR assay
Conditions: HEK 293 cell line expressing human recombinant mGluR5; EC50 of the modulation from peak Ca fluorescence signal after glutamate at approx. 5% basal stimulation
Method in brief: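 HEK 293 cells expressing human recombinant mGluR5, Calcium-4 dye-loaded in Ringer solution pH 7.4. Compound (1% DMSO final) preincubated 5 min, then glutamate at ~5% of maximal effect added; peak Ca2+ fluorescence gives EC50 by nonlinear regression, normalized to DMSO (100%) and 10 μM CDPPB (200%) controls.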

T1 sequence (P41594 21-1212): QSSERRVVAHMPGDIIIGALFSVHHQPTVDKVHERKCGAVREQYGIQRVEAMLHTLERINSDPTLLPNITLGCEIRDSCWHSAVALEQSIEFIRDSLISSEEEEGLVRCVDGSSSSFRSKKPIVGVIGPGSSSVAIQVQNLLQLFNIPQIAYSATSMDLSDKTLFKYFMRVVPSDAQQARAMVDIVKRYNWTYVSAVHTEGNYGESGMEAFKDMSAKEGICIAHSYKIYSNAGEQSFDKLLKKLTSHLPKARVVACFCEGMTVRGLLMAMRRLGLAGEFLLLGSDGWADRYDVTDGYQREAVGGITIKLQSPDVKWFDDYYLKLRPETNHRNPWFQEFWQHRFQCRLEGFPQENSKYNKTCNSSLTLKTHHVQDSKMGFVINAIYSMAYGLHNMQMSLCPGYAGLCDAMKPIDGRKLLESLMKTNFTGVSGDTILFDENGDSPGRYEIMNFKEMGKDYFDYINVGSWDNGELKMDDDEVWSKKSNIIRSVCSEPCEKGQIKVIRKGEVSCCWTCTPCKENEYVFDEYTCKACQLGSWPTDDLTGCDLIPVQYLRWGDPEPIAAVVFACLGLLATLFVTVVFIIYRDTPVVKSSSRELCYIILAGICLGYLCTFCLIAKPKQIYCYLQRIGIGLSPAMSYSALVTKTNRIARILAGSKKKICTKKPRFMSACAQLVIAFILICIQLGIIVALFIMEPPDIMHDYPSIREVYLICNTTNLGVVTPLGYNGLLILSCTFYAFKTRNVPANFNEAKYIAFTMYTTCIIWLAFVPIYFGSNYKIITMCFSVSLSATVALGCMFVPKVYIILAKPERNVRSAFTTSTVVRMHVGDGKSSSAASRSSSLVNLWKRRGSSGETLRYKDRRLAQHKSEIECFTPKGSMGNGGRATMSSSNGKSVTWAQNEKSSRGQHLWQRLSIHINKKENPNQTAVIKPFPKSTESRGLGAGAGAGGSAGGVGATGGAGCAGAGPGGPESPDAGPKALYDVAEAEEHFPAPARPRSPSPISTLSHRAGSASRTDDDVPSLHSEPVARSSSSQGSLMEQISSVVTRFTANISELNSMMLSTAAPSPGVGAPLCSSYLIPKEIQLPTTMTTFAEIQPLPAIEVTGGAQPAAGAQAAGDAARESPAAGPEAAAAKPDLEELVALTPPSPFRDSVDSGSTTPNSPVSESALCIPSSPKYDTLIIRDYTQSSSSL

Row | Compound | EC50 [nM]
1 | Cc1cc(-c2cc(CC(C)C)n(CC(=O)N3CCc4nc(N)sc4CC3)n2)ccc1F [Example 7.02.120] | 21
2 | COc1ccc(-c2cc(C(C)C)n(CC(=O)N3CCc4nc(N)sc4CC3)n2)cc1C [Example 7.02.046] | 881
3 | CCCc1cc(-c2ccc(F)c(C)n2)nn1CC(=O)N1Cc2nc(C)sc2C1 [Example 7.02.248] | 290
4 | Cc1nc2c(s1)CN(C(=O)Cn1nc(-c3ccc(F)c(C)c3)cc1CC(C)C)C2 [Example 7.02.121] | 49
5 | CC1CN(C(=O)Cn2nc(-c3ccccc3)cc2-c2ccccc2)CC(C)N1C(=O)OCc1ccccc1 (stereo not drawn) [Example 7.01.025] | 1870
6 | CCNC(=O)Nc1nc2c(s1)CN(C(=O)Cn1nc(-c3ccccc3)cc1-c1ccccc1)CC2 [Example 7.01.041] | 1550
7 | CCc1cccc(-c2cc(CC)n(CC(=O)N3CCN(c4cccc(OC)c4)C(=O)C3)n2)c1 [Example 7.02.065] | 194
8 | CCc1cc(-c2ccc(F)c(C)c2)nn1CC(=O)N1CCN(c2nccs2)CC1 [Example 7.02.217] | 56
9 | CCc1cc(-c2ccc(C)c(C)c2)nn1CC(=O)N1CCc2nc(C)sc2CC1 [Example 7.02.083] | 35
10 | CCc1cc(-c2ccc(C)c(C)c2)nn1CC(=O)N1CCC(c2cc(OC)ncn2)CC1 [Example 7.02.092] | 369
11 | CCc1cc(-c2ccc(F)c(C)c2)nn1CC(=O)N1CCC(c2nnc(COC)o2)CC1 [Example 7.02.228] | 398
12 | CCc1cc(-c2cccc(C#N)c2)nn1CC(=O)N1CCC(c2ncc(C)o2)CC1 [Example 7.02.183] | 330
13 | COc1ccc(-c2cc(C(C)C)n(CC(=O)N3CCc4ccc(OC)cc4CC3)n2)cc1 [Example 7.02.044] | 735
14 | COc1cccc(-c2cc(C3CCCCC3)n(CC(=O)N3CCN(c4cccc(OC)c4)C(=O)C3)n2)c1 [Example 7.02.053] | 552
15 | COCc1cc(-c2ccc(F)c(C)c2)nn1CC(=O)N1Cc2nc(C)sc2C1 [Example 7.01.058] | 279
16 | CCc1cc(-c2ccc(F)c(C)c2)nn1CC(=O)N1CCc2nc(C)oc2C1 [Example 7.01.077] | 110
17 | O=C(Cn1nc(-c2ccccc2)cc1-c1ccccc1)N1CCN(Cc2ccccc2)C(=O)C1 [Example 7.02.063] | 1730
18 | CCc1cc(-c2cccc(Cl)c2)nn1CC(=O)N1CCC(c2ncc(C)o2)CC1 [Example 7.02.108] | 127
19 | Cc1nc2c(s1)CN(C(=O)Cn1nc(-c3ccc(OC(F)F)cn3)cc1-c1ccccc1)C2 [Example 7.02.237] | 111

Row | Compound | EC50 [nM]
20 | Cc1nc2c(s1)CN(C(=O)Cn1nc(-c3ccc(F)c(C)c3)cc1C)C2 [Example 7.01.062] | 242
21 | O=C(Cn1nc(-c2ccccc2)cc1-c1ccccc1)N1CCc2nc(-c3ccccc3)nc(O)c2C1 [Example 7.02.002] | 1170
22 | COc1cc(-c2cc(C(C)C)n(CC(=O)N3CCc4nc(N)sc4CC3)n2)ccc1F [Example 7.02.062] | 323
23 | COc1ccc2c(c1)CN(C(=O)Cn1nc(-c3ccccc3)cc1-c1ccccc1)C2 [Example 7.01.004] | 390
24 | Cc1nc2c(s1)CCN(C(=O)Cn1nc(-c3ccc(F)c(C)c3)cc1C1CCCCC1)CC2 [Example 7.02.048] | 31
25 | CCc1cc(-c2ccc(C)c(F)c2)nn1CC(=O)N1Cc2nc(C)sc2C1 [Example 7.02.239] | 842
26 | CCc1cc(-c2cccc(C)c2)nn1CC(=O)N1CCC(c2ncc(OC)cn2)CC1 [Example 7.02.081] | 991
27 | C=CCNC(=O)Nc1nc2c(s1)CN(C(=O)Cn1nc(-c3ccccc3)cc1-c1ccccc1)CC2 [Example 7.01.012] | 829
28 | O=C(Cn1nc(-c2ccccc2)cc1-c1ccccc1)N1CCN(c2nccc3occc23)CC1 [Example 7.01.049] | 652
29 | CCc1cc(-c2cccc(Cl)c2)nn1CC(=O)N1CC=C(c2ncc(C)o2)CC1 [Example 7.02.107] | 39
30 | CCc1cc(-c2ccc(F)c(C)c2)nn1CC(=O)N1CCN(c2nc(C)co2)CC1 [Example 7.02.167] | 370
31 | Cc1nc2c(s1)CN(C(=O)Cn1nc(-c3ccc(F)cn3)cc1-c1ccc(F)cc1)C2 [Example 7.02.059] | 287
32 | CC(C)c1cc(-c2ccc(F)cc2)nn1CC(=O)N1CCc2nc(N)sc2CC1 [Example 7.02.073] | 627
33 | CCc1cc(-c2ccc(F)c(C)c2)nn1CC(=O)N1CCc2nc(C)sc2CC1C (stereo not drawn) [Example 7.01.074] | 91
34 | CCc1cc(-c2ccc(C)c(C)c2)nn1CC(=O)N1CCC(c2ncc(OC)cn2)CC1 [Example 7.02.077] | 1800
35 | CCc1cccc(-c2cc(CC)n(CC(=O)N3Cc4nc(C)sc4C3)n2)c1 [Example 7.02.125] | 253
36 | COCCCc1cc(-c2ccc(F)c(C)c2)nn1CC(=O)N1Cc2nc(C)sc2C1 [Example 7.02.105] | 242
37 | O=C(Cn1nc(-c2ccccc2)cc1-c1ccccc1)N1CCN(c2nnc(C(F)(F)F)s2)CC1 [Example 7.01.037] | 188

The remaining lines, values ahead:

Row | EC50 [nM] | Compound
38 | 27 | Cc1cnc(C2=CCN(C(=O)Cn3nc(-c4ccc(F)c(C)c4)cc3-c3ccccc3)CC2)nc1 [Example 7.02.102]
39 | 66 | Cc1cc(-c2cc(-c3ccccc3)n(CC(=O)N3CCc4cc(-c5ccccc5)nnc4CC3)n2)ccc1F [Example 7.01.082]
40 | 170 | Cc1cc(-c2cc(-c3ccccc3)n(CC(=O)N3CCc4nc(N)sc4CC3)n2)ncc1F [Example 7.02.156]
41 | 21 | Cc1cc(-c2cc(-c3ccccc3)n(CC(=O)N3CC=C(c4ncccn4)CC3)n2)ccc1F [Example 7.02.014]
42 | 21 | Cc1ccc(-c2cc(-c3ccccc3)n(CC(=O)N3CCc4nc(C)sc4CC3)n2)nc1 [Example 7.02.116]
43 | 10 | Cc1nc2c(s1)CCN(C(=O)Cn1nc(-c3ccc(C(F)F)cc3)cc1-c1ccccc1)CC2 [Example 7.02.259]
44 | 115 | COc1cc(C2CCN(C(=O)Cn3nc(-c4ccc(C)c(C)c4)cc3-c3ccccc3)CC2)ncn1 [Example 7.02.091]
45 | 913 | Cc1nc2c(s1)CN(C(=O)Cn1nc(-c3ccc(F)cn3)cc1-c1ccccc1)C2 [Example 7.02.057]
46 | 33 | Cc1cc(-c2cc(-c3ccccc3)n(CC(=O)N3CCc4ncnc(-c5ccccc5)c4CC3)n2)ccc1F [Example 7.01.092]
47 | 28 | COc1cc(-c2cc(-c3ccccc3)n(CC(=O)N3Cc4nc(C)sc4C3)n2)ccc1F [Example 7.02.150]
48 | 11 | Cc1nc2c(s1)CCN(C(=O)Cn1nc(-c3ccc(C)c(C)c3)cc1-c1ccccc1)CC2 [Example 7.02.086]
49 | 51 | Cc1cnc(C2CCN(C(=O)Cn3nc(-c4ccc(F)c(C)c4)cc3-c3ccccc3)CC2)s1 [Example 7.02.140]
50 | 30 | Cc1cc(-c2cc(-c3ccccc3)n(CC(=O)N3CCc4cc(=O)n(C)nc4CC3)n2)ccc1F [Example 7.01.081]
51 | 31 | Cc1cc(-c2cc(-c3ccccc3)n(CC(=O)N3CCc4cn[nH]c4CC3)n2)ccc1F [Example 7.01.052]
52 | 240 | Cc1cc(-c2cc(-c3ccccc3)n(CC(=O)N3CCc4ccccc4CC3)n2)ccc1F [Example 7.01.090]
53 | 997 | Cc1nc(C2CCN(C(=O)Cn3nc(-c4ccccc4)cc3-c3ccccc3)CC2)oc1C [Example 7.02.008]
54 | 83 | CCc1cc(-c2ccc(F)c(C)c2)nn1CC(=O)N1CCc2nc(N)sc2CC1 [Example 7.02.026]
55 | 68 | Cc1nc(-c2cc(-c3ccccc3)n(CC(=O)N3CCc4nc(N)sc4CC3)n2)ccc1F [Example 7.02.171]

Row | EC50 [nM] | Compound
56 | 17 | Cc1nnc(N2CCN(C(=O)Cn3nc(-c4ccc(OC(F)F)cc4)cc3-c3ccccc3)CC2)o1 [Example 7.02.225]
57 | 4 | Cc1cnc(C2=CCN(C(=O)Cn3nc(-c4ccc(F)c(C)c4)cc3-c3ccccc3)CC2)o1 [Example 7.02.100]
58 | 26 | Cc1nc2c(s1)CN(C(=O)Cn1nc(-c3ccc(C(F)F)cc3)cc1-c1ccccc1)C2 [Example 7.02.260]
59 | 90 | Cc1cccc(-c2cc(-c3ccccc3)n(CC(=O)N3CCC(c4nnc(C)o4)CC3)n2)c1 [Example 7.02.197]
60 | 6 | Cc1nnc(N2CCN(C(=O)Cn3nc(-c4ccc(F)c(C)c4)cc3-c3ccccc3)CC2)o1 [Example 7.02.095]
61 | 2 | Cc1nc(N2CCN(C(=O)Cn3nc(-c4ccc(F)c(C)c4)cc3-c3ccccc3)CC2)no1 [Example 7.02.195]
62 | 45 | Cc1cc(-c2cc(-c3ccccc3)n(CC(=O)N3CCN(C(=O)Oc4ccccc4)CC3)n2)ccc1F [Example 7.02.242]
63 | 35 | COc1nc2c(s1)CCN(C(=O)Cn1nc(-c3ccc(F)c(C)c3)cc1-c1ccccc1)CC2 [Example 7.02.161]
64 | 15 | Cc1nc2c(s1)CCN(C(=O)Cn1nc(-c3cccc(C#N)c3)cc1-c1ccccc1)CC2 [Example 7.02.189]
65 | 1320 | Nc1ccc2c(c1)CCN(C(=O)Cn1nc(-c3ccccc3)cc1-c1ccccc1)CC2 [Example 7.01.036]
66 | 254 | COc1cnc(C2CCN(C(=O)Cn3nc(-c4ccc(C)c(C)c4)cc3-c3ccccc3)CC2)nc1 [Example 7.02.088]
67 | 484 | COC(=O)c1ccc2c(c1)CCN(C(=O)Cn1nc(-c3ccccc3)cc1-c1ccccc1)CC2 [Example 7.01.030]
68 | 96 | Cc1nc2c(s1)CCN(C(=O)Cn1nc(-c3ccc(F)cn3)cc1-c1ccc(F)cc1)CC2 [Example 7.02.061]
69 | 1810 | COc1cccc2c1CCN(C(=O)Cn1nc(-c3ccccc3)cc1-c1ccccc1)C2 [Example 7.01.015]
70 | 10 | Cc1cc(C2=CCN(C(=O)Cn3nc(-c4ccc(F)c(C)c4)cc3-c3ccccc3)CC2)ncn1 [Example 7.02.096]
71 | 245 | Cc1nc2c(s1)CCN(C(=O)Cn1nc(-c3ccc(F)cn3)cc1-c1ccccc1)CC2 [Example 7.02.056]
72 | 233 | CCc1cc(-c2ccc(F)c(C)c2)nn1CC(=O)N1CCc2ccsc2CC1 [Example 7.01.071]

Source: patent US8741892B2, “Compounds” (Boehringer Ingelheim International GmbH, priority 2011, dated 2014)
